Source: US5416076A, “S-adenosyl methionine decarboxylase inhibitors” (Merrell Dow Pharmaceuticals Inc., priority 1989, dated 1995)

System: Trypanosoma brucei
Test: Treatment of Trypanosoma Brucei-infected mice
Assay type: in vivo, T. brucei (EATRO 110) in mice (CD-1, males)
Conditions: for Mice cured/Total: cured = surviving 30 days after all controls dead
Source text: Illustrative of the effects of a compound of this invention (i.e., cis-5'-deoxy-5'-(4-amino-2-butenyl )methylaminoadenosine, identified below as MDL Compound) for the treatment of African Trypanosomiasis is an assay using Trypanosoma brucei-infected mice, as follows:
(a) includes those animals that died.
(b) MDL Compound was given intraperitoneally three times per day (8:30
a.m., 12:30 p.m. and 4:30 p.m,) for three consecutive days.
(c) Eflornithine was given in drinking water for three days.
Mice (20-22 g, CD-1, males) were infected with 2.5×10^5 T. brucei (EATRO 110) by intraperitoneal injection. Drug treatment commenced 24 h after infection. Mice surviving for 30 days after all controls were dead were considered cured. This method for drug testing is that of Bacchi et al. (1980) Science 210: 332-334, and successfully predicted the utility of eflornithine in human trypanosomiasis.

For `NCCCC(N)(C(=O)O)C(F)F` (centres unmarked) [Eflornithine, reference compound], the “Mice cured/Total” value (2% in drinking water for three days) was 3/5.

With `CN(C/C=C\CN)C[C@H]1O[C@@H](n2cnc3c(N)ncnc32)[C@H](O)[C@@H]1O` [MDL Compound, CIS-5'-DEOXY-5'(4-AMINO-2-BUTENYL)METHYLAMINOADENOSINE] the “Mice cured/Total” value (dose 10 (unit not given), intraperitoneally three times per day for three consecutive days) was 2/5, the “Mice cured/Total” value (dose 20 (unit not given), intraperitoneally three times per day for three consecutive days) was 3/5 and the “Mice cured/Total” value (dose 50 (unit not given), intraperitoneally three times per day for three consecutive days) was 4/5. For the same molecule, the “Days of Survival (includes those animals that died)” value (dose 50 (unit not given), intraperitoneally three times per day for three consecutive days, per animal) was 12 days.
